The source of these data is PMC10096180, “Half-Sandwich Type Platinum-Group Metal Complexes of C-Glucosaminyl Azines: Synthesis and Antineoplastic and Antimicrobial Activities” (Molecules, 2023).

The structures appear in SMILES notation. Like-named read-outs stand apart in the source and are kept apart here.

Series [1] relates to A2780 cells. Description: MTT reduction assay, early toxicity, 4 h treatment. In kind it is cell-based. The gist of the method: (§1)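 Cells plated the day before, exposed to compounds for 4 h, then MTT 0.5 mg/mL for 40–60 min at 37 °C; reduced dye dissolved in DMSO, read at 540 nm relative to vehicle wells. IC50 by four-parameter fit; otherwise % inhibition at 100 μM.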
In general terms: Formazan colour is commonly taken as a measure of viable cells.

Series [2] concerns primary human dermal fibroblasts. Briefly: MTT reduction assay, early toxicity, 4 h treatment. In kind it is cell-based. As to conditions: up to 100 μM. The gist of the method:
as §1

The test system of series [3] is A2780 cells. Briefly: SRB binding assay, cytostasis, 48 h treatment. The format is cell-based. As to conditions: for A2780 SRB Max Inhibition: up to 100 μM, ND = not detectable. In outline:
(§2)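 Ovarian cancer A2780 cells and primary human dermal fibroblasts treated 48 h, TCA-fixed, SRB-stained, absorbance at 540 nm relative to vehicle. IC50 from four-parameter fit when a plateau was reached or inhibition exceeded 90%; otherwise percent inhibition at 100 μM.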

For series [4], the system named is primary human dermal fibroblasts. Description: SRB binding assay, cytostasis, 48 h treatment. Conditions: up to 100 μM, ND = not detectable. In kind it is cell-based. The gist of the method:
as §2
A general note: Sulforhodamine B stains cellular protein and so reports cell mass.

Series [5] in a line: Distribution coefficient (logD), n-octanol-PBS. As to conditions: n-octanol-PBS (pH = 7.4) system. The format is physicochemical. On the procedure:
The logD values of the newly synthesized complexes were determined according to a procedure described in our previous publications. page 64: Ir-7b +1.17 Rh-7b +1.41 Ru-7c +1.31 Os-7c +1.59 Ir-7c +1.40 Rh-7c +1.13 Ru-7d +1.26 Os-7d +1.42 Ir-7d +1.30 Rh-7d +1.04 Ru-7e +2.22 Os-7e +2.21 Ir-7e +1.39 Rh-7e +1.66 *logD was determined in an n-octanol-PBS (pH = 7.4) system 64 (14 pictures or pasted objects on this page, not shown here)

Series [6] has as its system Enterococcus faecalis (ATCC29212). Description: Broth microdilution MIC, reference strain. The format is cell-based. Conditions: 24 h, tested range 0.08–40 μM, read-out: MIC E. faecalis ATCC 29,212. The gist of the method:
(§3)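 EUCAST broth microdilution in Mueller–Hinton broth, inoculum 5.0 × 10^5 CFU/mL, compounds at 0.08–40 μM (twofold dilutions), 24 h at 37 °C. Plates read visually; MIC taken as lowest concentration giving ≥50% inhibition versus drug-free growth control.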

Series [7] deals with Staphylococcus aureus (ATCC29213). Briefly: Broth microdilution MIC, reference strain. The format is cell-based. As to conditions: 0.08–40 μM, read-out: MIC S. aureus ATCC 29213. In outline:
as §3
Background: In broth dilution the organism is exposed to a series of concentrations in liquid medium.

The test system of series [8] is vancomycin-resistant Enterococcus (VRE) clinical isolates. Briefly: Broth microdilution MIC, clinical VRE isolates. In kind it is cell-based, E. faecium. Conditions: 24 h, 0.08–40 μM. In outline: (§4)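 S. aureus and E. faecium clinical isolates (Debrecen, 2018–2020; MALDI-TOF-identified) tested by EUCAST broth microdilution in Mueller–Hinton broth at 5.0 × 10^5 CFU/mL across 0.08–40 μM (twofold). After 24 h at 37 °C, visually read; MIC is the lowest concentration giving ≥50% inhibition versus growth control. At least two runs in duplicate.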

Series [9] relates to methicillin-resistant Staphylococcus aureus (MRSA) clinical isolates. Briefly: Broth microdilution MIC, clinical MRSA isolates. As to conditions: 24 h, 0.08–40 μM. In kind it is cell-based. The gist of the method: as §4
A further series relates to Capan2 cells. Description: SRB assay, 48 h. In kind it is cell-based. As to the method:
(§5) Figure 8 Assessment of free ligand 3a and complex Ru-3a for cytostatic activity in multiple carcinomas. […] Cells were treated with the compounds in the concentrations indicated for 48 h; then, an SRB assay was performed. Data are represented as average ± SD from three biological replicates; individual assays were performed in duplicates. Values were normalized for vehicle-treated cells; absorbance for vehicle-treated cells equals 1. Statistical significance was assessed using a one-way ANOVA test comparing all values to the lowest concentration of a compound. Before the test, normality was assessed using the Shapiro–Wilk test, and the post hoc test was chosen accordingly. […] An SRB assay measures protein content of cells in correlation with the cell number in an assay well and can therefore be used to assess cell proliferation or long-term cytostasis. Cells were seeded in 96-well plates the day before the assay. Cells were treated with the compounds for 48 h. Then medium was removed, and cells were fixed with 10% trichloroacetic acid. […] Stained cells were washed in 1% acetic acid 5 times; acetic acid was removed, and cells were left to dry. Protein-bound SRB was released by adding 100 μL 10 mM Tris base. Plates were measured in a plate photometer (Thermo Scientific Multiscan GO spectrophotometer, Waltham, MA, USA) at 540 nm. On each plate, wells were designed to contain vehicle-treated cells. […] Statistical analysis was performed using version 8.0.1 of GraphPad Prism. Values were tested for normal distribution using the Shapiro–Wilk normality test. […] In other cases, the percentage of inhibition was taken for the maximum concentration (100 μM).

A further series deals with ID8 cells. Description: SRB assay, 48 h. In kind it is cell-based. On the procedure:
as §5

The test system of another series is MCF7 cells. Briefly: SRB assay, 48 h. The format is cell-based. As to the method:
as §5

The subject of another series is U251 cells. Description: SRB assay, 48 h. In kind it is cell-based. On the procedure:
as §5

Setting [10] is: inhibition at maximum concentration (100 μM) where no plateau, ND = not detectable.
The mark [11] stands for this setting: clinical isolate 25,051 VRE, read-out: MIC 25,051 VRE.
The mark [12] stands for this setting: clinical isolate 25,498 VRE, read-out: MIC 25,498 VRE.
Setting [13] is: clinical isolate 27,085 VRE, read-out: MIC 27,085 VRE.
The mark [14] stands for this setting: clinical isolate 20,426 MRSA, read-out: MIC 20,426 MRSA.
The mark [15] stands for this setting: clinical isolate 24,035 MRSA, read-out: MIC 24,035 MRSA.
Where [16] appears, read: clinical isolate 24,268 MRSA, read-out: MIC 24,268 MRSA.
[17] abbreviates: clinical isolate 24,272 MRSA, read-out: MIC 24,272 MRSA.
[18] abbreviates: clinical isolate 24,328 MRSA, read-out: MIC 24,328 MRSA.
Setting [19] is: clinical isolate 24,408 MRSA, read-out: MIC 24,408 MRSA.

In the case of `Cc1ccc(C(C)C)cc1.F[P-](F)(F)(F)(F)F.N[C@@H]1[C@@H](OC(=O)c2ccccc2)[C@H](OC(=O)c2ccccc2)[C@@H](COC(=O)c2ccccc2)O[C@H]1c1ccccn1.[Cl][Ru+]` [Ru-7a], the IC50 (commonly the concentration at which inhibition is half-maximal) with A2780 cells [1] was 9.15 µM; in the series with A2780 cells [3] it was 4.11 µM. Besides, the “A2780 MTT Max Inhibition” value with A2780 cells [1] (setting [10]) is recorded as >90%. In addition, in [2], the “Fibroblast MTT Max Inhibition” value came to 65.18%. Further, in the series with A2780 cells [3], the “A2780 SRB Max Inhibition” value is listed as >90%. Besides, in [4], the “Fibroblast SRB Max Inhibition” value is 56.31%. Also, in series [5], the logD (as a rule, the decadic logarithm of the distribution of all forms, ionised or not, between an organic phase and buffer at a given pH) amounted to 1.15. Moreover, the MIC in series [6], in series [7] (24 h), in series [8] (setting [11]), in series [8] (setting [12]), in series [8] (setting [13]) and in series [9] (setting [14]) was 5 µM each time. The MIC in [9] (setting [15]), in series [9] (setting [16]), in [9] (setting [17]), in [9] (setting [18]) and in series [9] (setting [19]) was 5 µM throughout.
In the case of `Cc1ccc(C(C)C)cc1.F[P-](F)(F)(F)(F)F.N[C@@H]1[C@@H](OC(=O)c2ccccc2)[C@H](OC(=O)c2ccccc2)[C@@H](COC(=O)c2ccccc2)O[C@H]1c1ccccn1.[Cl][Os+]` [Os-7a], the IC50 with A2780 cells [1] came out at 13.8 µM; in the series on A2780 cells [3], 8.58 µM. The “A2780 MTT Max Inhibition” value with A2780 cells [1] (setting [10]) is given as >90%. In series [2], the “Fibroblast MTT Max Inhibition” value amounted to 65.18%. The “A2780 SRB Max Inhibition” value in the series with A2780 cells [3] is >90%. Moreover, the “Fibroblast SRB Max Inhibition” value in series [4] is reported as 49.00%. Moreover, the logD in series [5] came out at 2.15. Besides, the MIC (in general, the lowest concentration found to suppress growth) in [6] came to 5 µM; in series [7] (24 h), 10 µM; in [8] (setting [11]) it was 5 µM; in series [8] (setting [12]), 5 µM; in [8] (setting [13]), 10 µM; in series [9] (setting [14]) it was 10 µM. The MIC in [9] (setting [15]) amounted to 10 µM; in series [9] (setting [16]), 5 µM; in series [9] (setting [17]), 5 µM; in [9] (setting [18]), 5 µM; in series [9] (setting [19]) it was 5 µM.
As to `N[C@@H]1[C@@H](OCc2ccccc2)[C@H](OCc2ccccc2)[C@@H](COCc2ccccc2)O[C@H]1c1ccccn1` [Complex 3a, 2-(2′-Amino-2′-deoxy-3′,4′,6′-tri-O-benzyl-β-D-glucopyranosyl)pyridine], the inhibition (in general, the relative decrease from the control value, in per cent) at 100 µM with A2780 cells [1] (Homo sapiens, inhibition at maximum concentration (100 μM) where no plateau, ND = not detectable, read-out: A2780 MTT Max Inhibition) came out at 70.2%. Besides, in series [2], the “Fibroblast MTT Max Inhibition” value is recorded as 32.22%. The IC50 in the series on A2780 cells [3] was 36.2 µM; in the series on A2780 cells [3] (Homo sapiens, A2780, 48 h), > 30 µM; with Capan2 cells it was 15 µM; in the series with Capan2 cells (Homo sapiens, Capan-2, 48 h), 10 to 30 µM; with ID8 cells, 13.1 µM; in the series with ID8 cells (Mus musculus, ID8, 48 h) it was 10 to 30 µM. Also, the “A2780 SRB Max Inhibition” value with A2780 cells [3] is recorded as >90%. For the same compound, the “Capan2 SRB Max Inhibition” value in the series with Capan2 cells is >90%. In addition, the “ID8 SRB Max Inhibition” value in the series with ID8 cells was >90%. The “MCF7 SRB Max Inhibition” value in the series with MCF7 cells was >90%. Moreover, the “U251 SRB Max Inhibition” value in the series on U251 cells is reported as >90%. In addition, the MIC in series [6] (Enterococcus faecalis) is > 40 µM; in series [7] (Staphylococcus aureus, ATCC29213, 24 h), > 40 µM; in series [8] (Enterococcus, clinical isolate 25,051 VRE, read-out: MIC 25,051 VRE), > 40 µM; in series [8] (Enterococcus, clinical isolate 25,498 VRE, read-out: MIC 25,498 VRE), > 40 µM; in [8] (Enterococcus, clinical isolate 27,085 VRE, read-out: MIC 27,085 VRE), > 40 µM; in series [9] (Staphylococcus aureus, clinical isolate 20,426 MRSA, read-out: MIC 20,426 MRSA), > 40 µM. In addition, the MIC in series [9] (Staphylococcus aureus, clinical isolate 24,035 MRSA, read-out: MIC 24,035 MRSA) is > 40 µM; in series [9] (Staphylococcus aureus, clinical isolate 24,268 MRSA, read-out: MIC 24,268 MRSA), > 40 µM; in series [9] (Staphylococcus aureus, clinical isolate 24,272 MRSA, read-out: MIC 24,272 MRSA), > 40 µM; in [9] (Staphylococcus aureus, clinical isolate 24,328 MRSA, read-out: MIC 24,328 MRSA) it was > 40 µM; in series [9] (Staphylococcus aureus, clinical isolate 24,408 MRSA, read-out: MIC 24,408 MRSA) it was > 40 µM.
Take `Cc1c(C)c(C)[c-](C)c1C.F[P-](F)(F)(F)(F)F.N[C@@H]1[C@@H](OC(=O)c2ccccc2)[C@H](OC(=O)c2ccccc2)[C@@H](COC(=O)c2ccccc2)O[C@H]1c1ccccn1.[Cl][Ir+2]` [Ir-7a]: the IC50 in the series with A2780 cells [1] came out at 11.6 µM; with A2780 cells [3], 6.2 µM. Further, in the series with A2780 cells [1] (setting [10]), the “A2780 MTT Max Inhibition” value is given as >90%. The “Fibroblast MTT Max Inhibition” value in series [2] is recorded as 65.18%. Also, the “A2780 SRB Max Inhibition” value with A2780 cells [3] is recorded as >90%. Besides, the “Fibroblast SRB Max Inhibition” value in series [4] is 56.31%. Besides, the logD in [5] is given as 1.08. Also, the MIC turned out to be 40 µM in series [6]; 20 µM in series [7] (24 h); 40 µM in series [8] (setting [11]); 40 µM in series [8] (setting [12]); 40 µM in [8] (setting [13]); 10 µM in [9] (setting [14]). In addition, the MIC in series [9] (setting [15]) came out at 10 µM; in series [9] (setting [16]), 10 µM; in [9] (setting [17]), 10 µM; in series [9] (setting [18]), 20 µM; in [9] (setting [19]) it was 10 µM.
